Here are results for one molecule from ChEMBL document CHEMBL1127581, “Evolution of a novel series of [(N,N-dimethylamino)propyl]- and piperazinylbenzanilides as the first selective 5-HT1D antagonists” (J Med Chem, 1994).

Assay [1] deals with T1, Adrenergic receptor alpha-1 (Homo sapiens, UniProt P35348+P25100+P35368).
T1 sequence (P35348 whole entry): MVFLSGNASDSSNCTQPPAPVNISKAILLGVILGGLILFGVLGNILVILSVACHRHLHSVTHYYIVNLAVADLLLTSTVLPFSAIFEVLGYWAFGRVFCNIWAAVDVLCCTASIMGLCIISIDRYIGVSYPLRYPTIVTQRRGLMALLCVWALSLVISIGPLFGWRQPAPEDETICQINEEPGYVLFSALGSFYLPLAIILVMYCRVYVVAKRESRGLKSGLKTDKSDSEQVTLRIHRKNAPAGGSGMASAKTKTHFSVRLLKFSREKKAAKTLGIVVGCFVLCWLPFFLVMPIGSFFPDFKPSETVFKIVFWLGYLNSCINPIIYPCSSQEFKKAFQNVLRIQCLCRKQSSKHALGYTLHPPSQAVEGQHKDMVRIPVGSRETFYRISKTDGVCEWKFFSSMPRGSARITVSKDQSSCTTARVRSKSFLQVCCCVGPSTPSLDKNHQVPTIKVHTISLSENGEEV
T1 sequence (P25100 whole entry): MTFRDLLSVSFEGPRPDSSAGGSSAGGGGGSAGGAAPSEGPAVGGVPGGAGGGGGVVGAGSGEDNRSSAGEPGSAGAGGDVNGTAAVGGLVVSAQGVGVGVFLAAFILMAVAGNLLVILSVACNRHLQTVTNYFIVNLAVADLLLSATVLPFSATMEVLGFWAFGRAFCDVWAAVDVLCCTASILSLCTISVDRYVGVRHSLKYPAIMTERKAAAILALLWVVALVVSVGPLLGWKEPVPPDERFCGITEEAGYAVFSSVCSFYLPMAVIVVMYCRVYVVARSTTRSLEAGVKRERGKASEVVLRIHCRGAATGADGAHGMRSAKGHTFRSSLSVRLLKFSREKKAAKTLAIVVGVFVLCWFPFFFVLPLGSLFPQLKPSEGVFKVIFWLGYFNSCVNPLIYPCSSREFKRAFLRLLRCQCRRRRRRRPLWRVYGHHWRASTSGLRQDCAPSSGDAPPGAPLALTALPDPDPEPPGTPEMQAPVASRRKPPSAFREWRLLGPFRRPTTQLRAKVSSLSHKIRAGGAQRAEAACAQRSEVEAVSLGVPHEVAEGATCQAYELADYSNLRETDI
T1 sequence (P35368 whole entry): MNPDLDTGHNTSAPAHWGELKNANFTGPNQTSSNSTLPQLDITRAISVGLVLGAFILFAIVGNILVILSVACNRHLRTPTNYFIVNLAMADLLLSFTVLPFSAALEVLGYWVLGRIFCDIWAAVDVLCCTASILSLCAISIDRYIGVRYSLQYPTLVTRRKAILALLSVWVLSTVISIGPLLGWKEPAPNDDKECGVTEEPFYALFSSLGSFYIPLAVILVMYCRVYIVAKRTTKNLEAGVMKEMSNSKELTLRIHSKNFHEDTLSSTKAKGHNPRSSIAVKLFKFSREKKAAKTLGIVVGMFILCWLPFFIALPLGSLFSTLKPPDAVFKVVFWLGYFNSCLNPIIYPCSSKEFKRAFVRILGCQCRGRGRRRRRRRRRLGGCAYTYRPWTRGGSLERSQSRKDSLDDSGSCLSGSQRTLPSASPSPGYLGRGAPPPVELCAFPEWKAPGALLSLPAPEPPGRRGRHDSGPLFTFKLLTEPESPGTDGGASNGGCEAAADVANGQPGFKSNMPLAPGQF
The assay can be described thus: Binding affinity against alpha-1 adrenoceptor. The format is protein assay.

In assay [2] the target is T2, Muscarinic acetylcholine receptor M1 (Homo sapiens, UniProt P11229).
T2 sequence (P11229 whole entry): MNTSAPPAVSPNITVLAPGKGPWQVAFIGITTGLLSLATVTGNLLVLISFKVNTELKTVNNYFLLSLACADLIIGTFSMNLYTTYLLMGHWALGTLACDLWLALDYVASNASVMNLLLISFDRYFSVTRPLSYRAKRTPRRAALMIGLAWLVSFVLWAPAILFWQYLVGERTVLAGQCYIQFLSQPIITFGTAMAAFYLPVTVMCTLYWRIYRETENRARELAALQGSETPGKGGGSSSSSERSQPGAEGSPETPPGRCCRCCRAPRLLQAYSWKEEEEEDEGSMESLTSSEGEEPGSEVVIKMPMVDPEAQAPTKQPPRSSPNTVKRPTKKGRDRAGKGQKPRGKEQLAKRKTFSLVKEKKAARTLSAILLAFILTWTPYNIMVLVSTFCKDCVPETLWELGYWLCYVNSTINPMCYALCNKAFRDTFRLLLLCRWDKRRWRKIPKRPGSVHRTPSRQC
Briefly: Binding affinity against muscarinic M1 receptor.

For a further assay, the target named is T3, D(4) dopamine receptor (Homo sapiens, UniProt P21917).
T3 sequence (P21917 whole entry): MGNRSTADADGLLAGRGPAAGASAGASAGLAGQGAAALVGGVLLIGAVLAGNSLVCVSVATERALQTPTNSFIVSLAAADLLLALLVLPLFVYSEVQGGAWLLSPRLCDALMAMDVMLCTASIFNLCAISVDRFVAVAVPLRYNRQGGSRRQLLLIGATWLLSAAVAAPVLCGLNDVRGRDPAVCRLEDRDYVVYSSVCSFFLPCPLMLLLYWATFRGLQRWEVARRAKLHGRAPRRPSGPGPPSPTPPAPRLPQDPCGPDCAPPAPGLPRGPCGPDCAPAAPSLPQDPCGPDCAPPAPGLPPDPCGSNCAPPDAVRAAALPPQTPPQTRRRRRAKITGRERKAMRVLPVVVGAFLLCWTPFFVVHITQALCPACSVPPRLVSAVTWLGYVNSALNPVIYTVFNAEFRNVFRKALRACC
The assay can be described thus: Binding affinity against dopamine D4 receptor.

The target of assay [3] is T4, 5-hydroxytryptamine receptor 1A (Rattus norvegicus, UniProt P19327).
T4 sequence (P19327 whole entry): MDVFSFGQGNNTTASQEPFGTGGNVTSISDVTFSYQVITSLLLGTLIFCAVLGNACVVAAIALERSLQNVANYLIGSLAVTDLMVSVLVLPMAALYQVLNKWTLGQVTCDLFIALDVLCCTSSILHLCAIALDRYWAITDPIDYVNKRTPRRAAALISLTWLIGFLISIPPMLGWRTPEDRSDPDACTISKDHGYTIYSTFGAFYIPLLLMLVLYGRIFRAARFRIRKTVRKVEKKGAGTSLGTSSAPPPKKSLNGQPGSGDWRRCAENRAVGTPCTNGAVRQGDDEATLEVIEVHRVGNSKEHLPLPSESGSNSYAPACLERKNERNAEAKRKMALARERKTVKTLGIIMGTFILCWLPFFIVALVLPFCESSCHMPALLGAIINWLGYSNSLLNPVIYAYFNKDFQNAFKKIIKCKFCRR
The assay can be described thus: Binding affinity towards 5-hydroxytryptamine 1A receptor in rat hippocampus with [3H]8-OH-DPAT. The format is tissue-based.

In another assay the target is D(2) dopamine receptor (Homo sapiens, UniProt P14416). Briefly: Binding affinity against dopamine D2 receptor.
A further assay addresses D(3) dopamine receptor (Homo sapiens, UniProt P35462). Briefly: Binding affinity against dopamine D3 receptor.
Assay [4] has as its target Serotonin 3 (5-HT3) receptor. The assay can be described thus: Binding affinity against the 5-hydroxytryptamine 3 receptor. The format is protein-complex assay.

pKi: −log10 of the molar value. Some results are limits rather than exact numbers.

Chain of D(3) dopamine receptor (P35462 whole entry): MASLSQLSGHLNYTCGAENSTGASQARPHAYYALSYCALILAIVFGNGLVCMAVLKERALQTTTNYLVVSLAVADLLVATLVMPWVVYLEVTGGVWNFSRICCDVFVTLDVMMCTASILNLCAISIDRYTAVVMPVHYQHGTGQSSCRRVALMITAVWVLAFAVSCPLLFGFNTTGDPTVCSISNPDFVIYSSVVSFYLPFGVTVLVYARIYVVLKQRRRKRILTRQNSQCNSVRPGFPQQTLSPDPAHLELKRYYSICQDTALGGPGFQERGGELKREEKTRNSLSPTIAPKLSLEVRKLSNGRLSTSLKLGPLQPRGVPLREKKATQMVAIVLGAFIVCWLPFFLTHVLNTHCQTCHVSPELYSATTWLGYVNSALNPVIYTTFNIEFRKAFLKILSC
Chain of D(2) dopamine receptor (P14416 whole entry): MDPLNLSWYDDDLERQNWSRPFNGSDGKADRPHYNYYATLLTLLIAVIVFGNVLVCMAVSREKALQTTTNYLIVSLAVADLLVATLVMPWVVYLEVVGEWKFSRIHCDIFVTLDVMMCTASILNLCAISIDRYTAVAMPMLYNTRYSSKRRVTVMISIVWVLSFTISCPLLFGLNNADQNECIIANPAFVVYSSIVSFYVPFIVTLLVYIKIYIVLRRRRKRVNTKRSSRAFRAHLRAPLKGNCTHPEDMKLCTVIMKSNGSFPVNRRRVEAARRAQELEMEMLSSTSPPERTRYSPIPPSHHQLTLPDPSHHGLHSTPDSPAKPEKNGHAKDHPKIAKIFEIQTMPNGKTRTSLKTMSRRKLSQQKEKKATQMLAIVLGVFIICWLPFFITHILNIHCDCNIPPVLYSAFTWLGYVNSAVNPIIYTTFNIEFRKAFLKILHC

As for `COc1ccc(NC(=O)c2ccc(-c3ccc(-c4noc(C)n4)cc3C)cc2)cc1N1CCN(C)CC1` [GR-127935], the Log Ki in assay [1] is greater than -6; in assay [4], -5.2. Also, the pKi (commonly −log10 of the Ki, conventionally taken in molar units) in assay [2] is less than 6.00; at D(4) dopamine receptor, less than 5.00; in assay [3], 6.50; at D(2) dopamine receptor, less than 5.00; on D(3) dopamine receptor, less than 5.00.
